Results reported in patent US8853424B2 (Japan Science and Technology Agency, priority 2008, dated 2014).
Each block holds one compound with its values, some of them ahead of it.

Assays:
[1] = test system: transglutaminase (TGase); assay: Measurement of TG (TGase inhibitory activity, monodansyl cadaverine / N,N-dimethylcasein fluorescence, FDSS 3000); assay type: biochemical
Summary of the method: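 Compound (1 μL of 10 mM stock) added to 0.1 mL reaction: 100 mM HEPES-NaOH pH 7.5, 1 mM CaCl2, 20 μM monodansyl cadaverine, 0.05 mg/mL N,N-dimethylcasein, 5 μg/mL TGase. Rate of fluorescence change at 340 nm measured; DMSO control set to 100; TG50 is the concentration halving activity.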

[2] = test system: Truncated N-terminal huntington 150 Q-EGFP-Neuron 2a cells; assay: Measurement of x-Fold (polyglutamine aggregation inhibitory activity); assay type: cell-based
Method: In the present invention, the polyglutamine aggregation inhibitory activity (x-Fold) can be measured, for example, by the method described in the Example.
The number of the aggregated cells, and the total number of cells were counted by Array Scan V T1 (manufactured by Cellomics, Pittuburg, USA), and the ratio of the aggregated cells to the total number of cells was determined (x-Fold). […]

[3] = TGase activity with compound (10 mM, 1 μL in 0.1 ml enzyme reaction solution), DMSO control taken as 100
[4] = ratio of aggregated cells to total number of cells, compound 20 μM, 20 hr, almost 1 without compound, smaller = stronger inhibition
[5] = TGase inhibitory activity value, Table 1
[6] = polyglutamine aggregation inhibitory activity, Table 1
[7] = TGase inhibitory activity measurement, unit not given
[8] = polyglutamine aggregation, Truncated N-terminal huntington 150 Q-EGFP-Neuron 2a cells

Structure (SMILES): Cc1ccc(B(O)c2ccc(COCc3ccc(B(O)c4ccc(C)c(Cl)c4)cc3)cc2)cc1Cl [Example 144, bis(3-chloro-4-methylphenylhydroxyboryl 4-benzyl)ether]
- TGase activity remaining (% of DMSO control = 100) [1, 3]: 99
- x-Fold [2, 4]: 0.87

Structure (SMILES): OB(c1ccccc1)c1ccc(B(O)c2ccccc2)c2ccccc12 [Example 135, 1,4-bis(phenylhydroxyboryl)naphthalene]
- TGase activity remaining (% of DMSO control = 100) [1, 3]: 99
- TGase activity remaining (% of DMSO control = 100) [1, 5]: 99
- x-Fold [2, 6]: 1.03
- x-Fold [2, 4]: 1.03

Structure (SMILES): NCCOB(c1cc(F)cc(F)c1)c1cc(F)cc(F)c1 [Example 91, aminoethyl bis(3,5-difluorophenyl)borinate]
- TGase activity remaining (% of DMSO control = 100) [1, 3]: 107
- TGase activity remaining (% of DMSO control = 100) [1, 5]: 107
- x-Fold [2, 6]: 0.99
- x-Fold [2, 4]: 0.99

Structure (SMILES): OB(c1ccccc1)c1ccccc1B(O)c1ccccc1 [Example 121, 1,2-bis(phenylhydroxyboryl)benzene]
- TGase activity remaining (% of DMSO control = 100) [1, 3]: 121
- TGase activity remaining (% of DMSO control = 100) ([1]; TGase inhibitory activity value, Table 1, listed as 583): 121
- x-Fold ([2]; polyglutamine aggregation inhibitory activity, Table 1, listed as 583): 0.94
- x-Fold [2, 4]: 0.94

Structure (SMILES): FC(F)(F)c1ccc(C(OB(c2ccccc2)c2ccccc2COCc2ccccc2B(OC(c2ccc(C(F)(F)F)cc2)c2ccccn2)c2ccccc2)c2ccccn2)cc1 (stereo not drawn) [Example 134, (2-pyridyl-4-trifluoromethylphenylmethoxyphenylboryl 2-benzyl)ether]
- TGase activity remaining (% of DMSO control = 100) [1, 3]: 94
- TGase activity remaining (% of DMSO control = 100) [1, 5]: 94
- x-Fold [2, 6]: 0.92
- x-Fold [2, 4]: 0.92

Structure (SMILES): Cc1ccc(B(OCCN2CCN(CCOB(c3ccc(C)c(Cl)c3)c3ccc(C)c(Cl)c3)CC2)c2ccc(C)c(Cl)c2)cc1Cl [Example 116, bis(di(3-chloro-4-methylphenyl)boryloxyethyl)piperazine]
- TGase activity remaining (% of DMSO control = 100) [1, 3]: 108
- x-Fold [2, 4]: 1.02

Structure (SMILES): NCCOB(c1ccc(F)c(F)c1)c1ccc(F)c(F)c1 [Example 87, 2-aminoethyl bis(3,4-difluorophenyl)borinate]
- TGase activity remaining (% of DMSO control = 100) [1, 3]: 91
- TGase activity remaining (% of DMSO control = 100) [1, 5]: 91
- x-Fold [2, 6]: 1.02
- x-Fold [2, 4]: 1.02

Structure (SMILES): OB(O)c1ccc(F)c(Cl)c1 [Example 145, (3-chloro-4-fluorophenyl)boronic acid]
- TGase activity remaining (% of DMSO control = 100) [1, 3]: 97
- TGase activity remaining (% of DMSO control = 100) [1, 5]: 97
- x-Fold [2, 6]: 0.91
- x-Fold [2, 4]: 0.91

Structure (SMILES): NCCOB(c1cc(Cl)ccc1F)c1cc(Cl)ccc1F [Example 100, aminoethyl bis(3-chloro-6-fluorophenyl)borinate]
- TGase activity remaining (% of DMSO control = 100) [1, 3]: 119
- TGase activity remaining (% of DMSO control = 100) [1, 5]: 119
- x-Fold [2, 6]: 0.97
- x-Fold [2, 4]: 0.97

Structure (SMILES): CN(C)CCOB(c1ccc(Cl)c(F)c1)c1ccc(Cl)c(F)c1 [Example 94, dimethylaminoethyl bis(4-chloro-3-fluorophenyl)borinate]
- TGase activity remaining (% of DMSO control = 100) [1, 3]: 114
- TGase activity remaining (% of DMSO control = 100) [1, 5]: 114
- x-Fold [2, 6]: 0.95
- x-Fold [2, 4]: 0.95

Structure (SMILES): OB(c1ccc(F)c(F)c1)c1ccc(F)c(F)c1 [Example 80, bis(3,4-difluorophenyl)borinic acid]
- TGase activity remaining (% of DMSO control = 100) [1, 3]: 93
- TGase activity remaining (% of DMSO control = 100) [1, 5]: 93
- x-Fold [2, 6]: 0.90
- x-Fold [2, 4]: 0.90

Now from value to compound, other results behind:

- TGase activity remaining (% of DMSO control = 100) [1, 3]: 97
- TGase activity remaining (% of DMSO control = 100) [1, 5]: 97
Structure (SMILES): Cc1ccc(B(O)c2ccc(-c3ccc(B(O)c4ccc(C)cc4)cc3)cc2)cc1 [Example 363, 4,4′-(4-methylphenylhydroxyboryl)diphenyl]
- x-Fold [2, 6]: 0.92
- x-Fold [2, 4]: 0.92

- TGase activity remaining (% of DMSO control = 100) [1, 3]: 81
- TGase activity remaining (% of DMSO control = 100) [1, 5]: 81
Structure (SMILES): c1cc(B(OCC2CCCN2)c2ccc3sc4ccc(B(OCC5CCCN5)c5ccsc5)cc4c3c2)cs1 (stereo not drawn) [Example 389, 2,8-di(3-thiophenyl-2-pyrrolidinomethoxyboryl)dibenzothiophene]
- x-Fold [2, 6]: 0.83
- x-Fold [2, 4]: 0.83

- TGase activity remaining (% of DMSO control = 100) [1, 3]: 104
Structure (SMILES): OB(c1cccc(COCc2cccc(B(O)c3cccc4ccccc34)c2)c1)c1cccc2ccccc12 [Example 347, bis(3-(1′-naphthylhydroxyboryl)benzyl)ether]
- x-Fold [2, 4]: 0.90

- TGase activity remaining (% of DMSO control = 100) [1, 3]: 91
- TGase activity remaining (% of DMSO control = 100) [1, 5]: 91
Structure (SMILES): NCCOB(c1ccccc1)c1ccc(COCc2ccccc2B(OCCN)c2ccccc2)cc1 [Example 335, (2-(phenylaminoethoxyboryl)benzyl) (4-(phenylaminoethoxyboryl)benzyl)ether]
- x-Fold [2, 6]: 1.02
- x-Fold [2, 4]: 1.02

- TGase activity remaining (% of DMSO control = 100) [1, 3]: 76
- TGase activity remaining (% of DMSO control = 100) [1, 5]: 76
Structure (SMILES): NCCOB(c1ccccc1)c1cccc(-c2cccc(B(OCCN)c3ccccc3)n2)n1 [Example 382, 6,6′-(phenylaminoethoxyboryl)-2,2′-dipyridyl]
- x-Fold [2, 6]: 0.80
- x-Fold [2, 4]: 0.80

- TGase activity remaining (% of DMSO control = 100) [1, 3]: 35
- TGase activity remaining (% of DMSO control = 100) [1, 5]: 35
Structure (SMILES): CNCCOB(c1ccccc1)c1ccc(Oc2ccc(B(OCCNC)c3ccc(COCOC)cc3)cc2)cc1 [Example 168, (4-(phenyl-N-methylaminoethoxyboryl)phenyl)-(4′-(methoxymethoxymethylphenyl-N-methylaminoethoxyboryl)phenyl)ether]
- x-Fold [2, 6]: 0.72
- x-Fold [2, 4]: 0.72

- TGase activity remaining (% of DMSO control = 100) [1, 3]: 103
- TGase activity remaining (% of DMSO control = 100) [1, 5]: 103
Structure (SMILES): Cc1cc(B(OCCN)c2cccc(COCc3ccccc3B(OCCN)c3ccc(Cl)c(C)c3)c2)ccc1Cl [Example 351]
- x-Fold [2, 6]: 1.00
- x-Fold [2, 4]: 1.00

- TGase activity remaining (% of DMSO control = 100) [1, 3]: 88
- TGase activity remaining (% of DMSO control = 100) [1, 5]: 88
Structure (SMILES): Fc1cc(B(OCCNc2ccccc2)c2ccc(Cl)c(F)c2)ccc1Cl [Example 237, di(4-chloro-3-fluorophenyl) 2-phenylaminoethyl borinate]
- x-Fold [2, 6]: 1.15
- x-Fold [2, 4]: 1.15

- TGase activity remaining (% of DMSO control = 100) [1, 3]: 118
- TGase activity remaining (% of DMSO control = 100) [1, 5]: 118
Structure (SMILES): Cc1ccc(B(O)c2ccc(Oc3ccc(B(O)c4ccc(C)cc4)cc3)cc2)cc1 [Example 365, 4,4′-(4-methylphenylhydroxyboryl)diphenylether]
- x-Fold [2, 6]: 0.91
- x-Fold [2, 4]: 0.91

- TGase activity remaining (% of DMSO control = 100) [1, 5]: 98
Structure (SMILES): Cc1ccc(Cl)cc1B(OCC1CCCCN1)c1cc(Cl)ccc1C (stereo not drawn) [Example 371]
- x-Fold [2, 6]: 1.17

- TGase activity remaining (% of DMSO control = 100) [1, 3]: 76
- TGase activity remaining (% of DMSO control = 100) [1, 7]: 76
Structure (SMILES): NCCOB(c1ccsc1)c1ccc2sc3ccc(B(OCCN)c4ccsc4)cc3c2c1 [Example 485, 2,8-di(3-thiophenylaminoethoxyboryl)dibenzothiophene]
- x-Fold [2, 8]: 0.98
- x-Fold [2, 4]: 0.98

- TGase activity remaining (% of DMSO control = 100) [1, 3]: 70
- TGase activity remaining (% of DMSO control = 100) [1, 7]: 70
Structure (SMILES): NC(CS)C(=O)OB(c1ccccc1)c1ccc(Oc2ccc(B(OC(=O)C(N)CS)c3ccc(CO)cc3)cc2)cc1 (stereo not drawn) [Example 397, (4-(phenyl-cysteineboryl)phenyl)(4′-(hydroxymethylphenyl-cysteineboryl)phenyl)ether]
- x-Fold [2, 8]: 0.59
- x-Fold [2, 4]: 0.59
